Molecules are shown by their SMILES.

As a reminder, the IC50 is the concentration that gives 50% inhibition.

The subject of assay [1] is Ergosterol Biosynthesis, Aspergillus fumigatus_ND 158. Briefly: Inhibition of ergosterol biosynthesis. Type of assay: cell-based, Aspergillus fumigatus. The settings on record: RPMI-1640, 30° C., 48 h, read-out: IC50 Values for Inhabitation of Ergosterol Biosynthesis. As for the experimental part:
(§1) Compounds of the invention were tested for their ability to inhibit ergosterol biosynthesis. Testing was performed in 96-well round-bottom microtitration plates. Cell suspensions were prepared in RPMI-1640 medium and were adjusted to give a final inoculum concentration of 0.5×10^3 to 2.5×10^3 cells/ml. The plates were incubated incubated at 30° C. for 48 h before growth was assessed. The MIC of each compounds was defined as the lowest concentration at which there was 80% inhibition of growth compared with that in a drug-free control [O. N. Breivik and J. L. Owades, Agric. Food Chem., 5 (1957) 360-363; T. F. Patterson, S. G. Revankar, W. R. Kirkpatrick, O. Dib, A. W. Fothergill, S. W. Redding, D. A. Sutton and M. G. Rinaldi, J. Clin. Microbiol., 34 (1996) 1794-1797]. Ergosterol content was calculated as a percentage of the wet weight of the cell [National Committee for Clinical Laboratory Standards. 1997. Reference method for broth dilution antifungal susceptibility testing of yeasts, Approved standard. Document M27-A, National Committee for Clinical Laboratory Standards, Wayne, Pa.].

For assay [2], the system named is Ergosterol Biosynthesis, Candida albicans_C286. Briefly: Inhibition of ergosterol biosynthesis. Type of assay: cell-based, Candida albicans. The settings on record: RPMI-1640, 30° C., 48 h, read-out: IC50 Values for Inhabitation of Ergosterol Biosynthesis. How it is done:
as §1

In another assay the test system is Trichophyton rubrum. The experiment in a line: In vitro activity test, agar dilution method (GMMIC). Type of assay: cell-based. The settings on record: 17 organisms, Kimmig's agar, 25° C. How it is done:
(§2) Organisms listed in Table 4 were tested according to an agar dilution method: Suspensions of each microorganism were prepared to contain […] colony forming units (cfu)/mL. All drugs were dissolved in a few drops of DMSO then diluted with ethanol—water (1/1, v/v) to make a stock solution of 500 μg/mL. The agar dilution method was performed in a medium of Kimmig's agar (K. A., Merck) −0.5% glycerol [R. A. Fromtling, G. K. Abruzzo and A. Ruiz, Mycopathologia, 106 (1989) 163-166]. Plates of Kimmig's agar containing serial dilutions (25 to 0.01 μg/mL) of the drugs were inoculated with 10 μL of the fungal inocula and incubated at 25° C. […] for yeasts and up to 5 days for filamentous fungi. Following incubation, GMMICs (geometric mean minimum inhibitory concentration μg/mL) were determined. In the table POCZ indicates posaconazole, ITRZ indicates itraconazole, and FLUZ indicates fluconazole. [Patterson, T. F., S. G. Revankar, W. R. Kirkpatrick, O. Dib, A. W. Fothergill, S. W. Redding, D. A. Sutton, and M. G. Rinaldi, J. Clin. Microbiol. 34 (1996) 1794-1797].

A further assay deals with Aspergillus Flavus. Described as above. Type of assay: cell-based. The settings on record: 9 organisms, Kimmig's agar, 25° C. As for the experimental part: as §2
A further assay deals with Microsporum canis. Described as above. Type of assay: cell-based. The settings on record: 6 organisms, Kimmig's agar, 25° C. How it is done: as §2
A further assay relates to Candida Krusei. The assay is described as above. The settings on record: 22 organisms, Kimmig's agar, 25° C. The assay is classed as cell-based. How it is done: as §2
The test system of the next assay is Cryptococcus neoformans. The description is as above. Type of assay: cell-based. The settings on record: 10 organisms, Kimmig's agar, 25° C. As for the experimental part: as §2

For `CC[C@@H]([C@H](C)O)n1ncn(-c2ccc(N3CCN(c4ccc(OC[C@@H]5CO[C@@](Cn6cncn6)(c6ccc(F)cc6F)C5)cc4)CC3)cc2)c1=O` [POCZ, posaconazole, reference compound], the IC50 in assay [1] stood at 11.8 nM.
As for `CCC(C(C)O)n1ncn(-c2ccc(N3CCN(c4ccc(SCC5OCC(Cn6cncn6)(c6ccc(F)cc6F)O5)cc4)CC3)cc2)c1=O` (centres unmarked) [I-Rf (D), 4-(4-(4-(4-((4-((1H-1,2,4-triazol-1-yl)methyl)-4-(2,4-difluorophenyl)-1,3-dioxolan-2-yl)methylthio)phenyl)piperazin-1-yl)phenyl)-1-(2-hydroxypentan-3-yl)-1H-1,2,4-triazol-5(4H)-one], the IC50 worked out at 9.9 nM in assay [1] and 33.4 nM in assay [2].
Turning to `CC(O)C(C)n1ncn(-c2ccc(N3CCN(c4ccc(SCC5CCC(Cn6cncn6)(c6ccc(F)cc6F)O5)cc4)CC3)cc2)c1=O` (centres unmarked) [I-Re (T), 4-(4-(4-(4-((5-((1H-1,2,4-triazol-1-yl)methyl)-5-(2,4-difluorophenyl)tetrahydrofuran-2-yl)methylthio)phenyl)piperazin-1-yl)phenyl)-1-(3-hydroxybutan-2-yl)-1H-1,2,4-triazol-5(4H)-one], the IC50 in assay [1] was determined as 9.6 nM.
Consider `CC(O)C(C)n1ncn(-c2ccc(N3CCN(c4ccc(SCC5OCC(Cn6cncn6)(c6ccc(F)cc6F)O5)cc4)CC3)cc2)c1=O` (centres unmarked) [I-Re (D), 4-(4-(4-(4-((4-((1H-1,2,4-triazol-1-yl)methyl)-4-(2,4-difluorophenyl)-1,3-dioxolan-2-yl)methylthio)phenyl)piperazin-1-yl)phenyl)-1-(3-hydroxybutan-2-yl)-1H-1,2,4-triazol-5(4H)-one], for which the IC50 in assay [2] turned out to be 31.9 nM.
In the case of `CCC(C(C)O)n1ncn(-c2ccc(N3CCN(c4ccc(CSC5CCC(Cn6cncn6)(c6ccc(F)cc6F)O5)cc4)CC3)cc2)c1=O` (centres unmarked) [II-Rf (T), 4-(4-(4-(4-((5-((1H-1,2,4-triazol-1-yl)methyl)-5-(2,4-difluorophenyl)tetrahydrofuran-2-ylhio)methyl)phenyl)piperazin-1-yl)phenyl)-1-(2-hydroxypentan-3-yl)-1H-1,2,4-triazol-5(4H)-one], the 50% inhibitory concentration (IC50) in assay [1] came out at 9.3 nM; in assay [2] it was 32.9 nM.
As to `CCC(C(C)O)n1ncn(-c2ccc(N3CCN(c4ccc(CSC5OCC(Cn6cncn6)(c6ccc(F)cc6F)O5)cc4)CC3)cc2)c1=O` (centres unmarked) [II-Rf (D), 4-(4-(4-(4-((4-((1H-1,2,4-triazol-1-yl)methyl)-4-(2,4-difluorophenyl)-1,3-dioxolan-2-ylthio)methyl)phenyl)piperazin-1-yl)phenyl)-1-(2-hydroxypentan-3-yl)-1H-1,2,4-triazol-5(4H)-one], the figures for the IC50 in assay [1] and in assay [2] were 9.8 nM and 31.1 nM, respectively.
In the case of `CCC(C)n1ncn(-c2ccc(N3CCN(c4ccc(OCC5COC(Cn6cncn6)(c6ccc(Cl)cc6Cl)O5)cc4)CC3)cc2)c1=O` (centres unmarked) [ITRZ, itraconazole], the “GMMICS (geometric mean minimum inhibitory concentration)” value in the assay with Trichophyton rubrum is 3.1 µg/mL; with Aspergillus Flavus it was 0.35 µg/mL; in the assay with Microsporum canis, 1.2 µg/mL; in the assay with Candida Krusei, 0.60 µg/mL; with Cryptococcus neoformans it was 0.49 µg/mL.
On to `CCC(C(C)O)n1ncn(-c2ccc(N3CCN(c4ccc(SCC5CCC(Cn6cncn6)(c6ccc(F)cc6F)O5)cc4)CC3)cc2)c1=O` (centres unmarked) [I-Rf (T), 4-(4-(4-(4-((5-((1H-1,2,4-triazol-1-yl)methyl)-5-(2,4-difluorophenyl)tetrahydrofuran-2-yl)methylthio)phenyl)piperazin-1-yl)phenyl)-1-(2-hydroxypentan-3-yl)-1H-1,2,4-triazol-5(4H)-one], for which the IC50 worked out at 9.5 nM in assay [1] and 32.1 nM in assay [2].
Turning to `C=CC(C)n1ncn(-c2ccc(N3CCN(c4ccc(SCC5OCC(Cn6cncn6)(c6ccc(F)cc6F)O5)cc4)CC3)cc2)c1=O` (centres unmarked) [I-Rg (D), 4-(4-(4-(4-((4-((1H-1,2,4-triazol-1-yl)methyl)-4-(2,4-difluorophenyl)-1,3-dioxolan-2-yl)methylthio)phenyl)piperazin-1-yl)phenyl)-1-(but-3-en-2-yl)-1H-1,2,4-triazol-5(4H)-one], the IC50 is 10.2 nM in assay [1] and 33.8 nM in assay [2].
The like results for `CCC(C)n1ncn(-c2ccc(N3CCN(c4ccc(CSC5OCC(Cn6cncn6)(c6ccc(F)cc6F)O5)cc4)CC3)cc2)c1=O` (centres unmarked) [II-Ra (D), 4-(4-(4-(4-((4-((1H-1,2,4-triazol-1-yl)methyl)-4-(2,4-difluorophenyl)-1,3-dioxolan-2-ylthio)methyl)phenyl)piperazin-1-yl)phenyl)-1-sec-butyl-1H-1,2,4-triazol-5(4H)-one] were, in that order, 10.3 nM and 34.3 nM.
